In one data set the target is BoNT/A (Clostridium botulinum, UniProt P0DPI0). Type of data set: binding.
The next data set concerns the target BoNT/B neurotoxin (Clostridium botulinum, UniProt P10844). The data set is classed as binding.
The next data set addresses BoNT/B (Clostridium botulinum, UniProt P10844). The data set is classed as binding.
The conditions of data set [1]: mouse, in vivo.
For a further data set, the target named is BotB complex (Clostridium botulinum, UniProt P10844). Type of data set: binding.
BotB complex, sequence (P10844 2-1291 limits assumed, one chain of several): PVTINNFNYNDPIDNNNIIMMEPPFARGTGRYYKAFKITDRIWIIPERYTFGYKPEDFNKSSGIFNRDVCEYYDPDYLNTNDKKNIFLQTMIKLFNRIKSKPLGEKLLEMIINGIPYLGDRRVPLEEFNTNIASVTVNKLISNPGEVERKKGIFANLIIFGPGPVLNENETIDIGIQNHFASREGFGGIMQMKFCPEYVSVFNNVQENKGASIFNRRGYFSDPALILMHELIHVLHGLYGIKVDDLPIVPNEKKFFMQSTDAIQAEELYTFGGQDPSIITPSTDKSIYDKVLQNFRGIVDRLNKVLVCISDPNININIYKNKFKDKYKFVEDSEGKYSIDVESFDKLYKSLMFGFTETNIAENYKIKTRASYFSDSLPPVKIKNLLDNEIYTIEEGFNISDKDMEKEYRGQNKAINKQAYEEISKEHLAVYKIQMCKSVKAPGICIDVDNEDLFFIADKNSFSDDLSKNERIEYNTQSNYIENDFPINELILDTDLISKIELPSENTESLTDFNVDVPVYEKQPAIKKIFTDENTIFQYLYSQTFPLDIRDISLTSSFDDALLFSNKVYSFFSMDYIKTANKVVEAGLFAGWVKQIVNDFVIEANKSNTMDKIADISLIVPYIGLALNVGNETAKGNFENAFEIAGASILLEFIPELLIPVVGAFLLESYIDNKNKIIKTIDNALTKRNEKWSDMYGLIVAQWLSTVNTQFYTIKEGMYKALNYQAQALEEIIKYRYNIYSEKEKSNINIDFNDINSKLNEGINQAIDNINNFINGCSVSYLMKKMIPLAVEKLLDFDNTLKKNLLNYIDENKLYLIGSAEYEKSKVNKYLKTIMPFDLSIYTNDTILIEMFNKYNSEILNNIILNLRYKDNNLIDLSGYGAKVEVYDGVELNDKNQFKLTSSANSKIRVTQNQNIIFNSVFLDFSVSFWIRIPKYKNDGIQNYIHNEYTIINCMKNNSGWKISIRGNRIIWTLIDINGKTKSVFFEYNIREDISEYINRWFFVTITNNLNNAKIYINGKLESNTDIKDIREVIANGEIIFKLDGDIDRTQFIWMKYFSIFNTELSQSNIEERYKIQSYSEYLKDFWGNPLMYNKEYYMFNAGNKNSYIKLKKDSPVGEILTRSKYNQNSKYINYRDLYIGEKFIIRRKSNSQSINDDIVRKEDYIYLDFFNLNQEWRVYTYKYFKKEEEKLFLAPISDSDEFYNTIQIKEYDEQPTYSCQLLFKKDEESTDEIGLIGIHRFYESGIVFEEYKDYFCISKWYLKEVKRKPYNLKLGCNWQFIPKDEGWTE
For a further data set, the target named is RCA60 (Ricinus communis, UniProt P02879). Type of data set: binding.
The target of data set [2] is T1, ConA (Canavalia ensiformis, Jack Bean Lectin) (Canavalia ensiformis, UniProt P02866).
T1 construct: purchased EY Laboratories (San Mateo, Calif.)
The data set can be described thus: Bead library screen, binding of AP-ConA. As to conditions: peptide on TentaGel bead; AP / NBT-BCIP detection.

The structures appear in SMILES notation. Read-outs that look alike come from different tables or passages of the source. Where a SMILES comes first, the peptide text is derived from it. [ ]: non-standard residue; d: D form.

In general, Kd refers to the concentration at which binding is half-saturated.

BoNT/A, sequence (P0DPI0 whole entry, looked up): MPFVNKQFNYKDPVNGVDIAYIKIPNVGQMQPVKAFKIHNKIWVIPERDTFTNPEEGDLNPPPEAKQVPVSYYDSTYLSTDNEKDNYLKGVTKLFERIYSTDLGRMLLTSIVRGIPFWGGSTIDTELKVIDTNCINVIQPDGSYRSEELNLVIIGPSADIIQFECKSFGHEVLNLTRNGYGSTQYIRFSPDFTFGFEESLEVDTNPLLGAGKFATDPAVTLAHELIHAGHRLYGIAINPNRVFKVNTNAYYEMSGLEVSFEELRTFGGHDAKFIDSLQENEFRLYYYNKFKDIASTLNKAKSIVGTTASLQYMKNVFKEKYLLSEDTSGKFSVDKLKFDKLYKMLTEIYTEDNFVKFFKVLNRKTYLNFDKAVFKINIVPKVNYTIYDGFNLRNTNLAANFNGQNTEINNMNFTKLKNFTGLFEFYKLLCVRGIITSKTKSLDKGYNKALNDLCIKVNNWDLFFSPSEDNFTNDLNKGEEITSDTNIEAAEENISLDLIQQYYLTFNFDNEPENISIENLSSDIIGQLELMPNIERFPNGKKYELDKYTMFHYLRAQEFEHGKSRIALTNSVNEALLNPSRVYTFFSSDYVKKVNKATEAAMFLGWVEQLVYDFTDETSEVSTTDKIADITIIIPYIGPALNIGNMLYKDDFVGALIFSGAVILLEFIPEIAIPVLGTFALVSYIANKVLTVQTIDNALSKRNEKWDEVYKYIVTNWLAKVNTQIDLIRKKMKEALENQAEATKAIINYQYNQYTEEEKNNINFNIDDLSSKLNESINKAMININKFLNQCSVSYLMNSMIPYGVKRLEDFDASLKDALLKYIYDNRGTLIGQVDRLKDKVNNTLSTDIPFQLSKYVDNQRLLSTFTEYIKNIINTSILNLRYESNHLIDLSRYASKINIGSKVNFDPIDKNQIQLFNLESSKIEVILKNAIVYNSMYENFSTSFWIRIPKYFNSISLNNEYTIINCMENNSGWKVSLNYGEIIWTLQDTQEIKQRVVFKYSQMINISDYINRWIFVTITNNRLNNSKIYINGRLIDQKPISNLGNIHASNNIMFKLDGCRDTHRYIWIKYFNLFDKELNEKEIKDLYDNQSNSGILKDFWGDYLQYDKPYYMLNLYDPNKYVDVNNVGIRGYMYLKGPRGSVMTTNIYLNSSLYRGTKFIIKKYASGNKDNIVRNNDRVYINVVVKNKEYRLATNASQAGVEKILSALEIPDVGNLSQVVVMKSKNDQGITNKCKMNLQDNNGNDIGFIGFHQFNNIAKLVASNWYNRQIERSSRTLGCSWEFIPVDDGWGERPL
BoNT/B neurotoxin, sequence (P10844 whole entry, looked up): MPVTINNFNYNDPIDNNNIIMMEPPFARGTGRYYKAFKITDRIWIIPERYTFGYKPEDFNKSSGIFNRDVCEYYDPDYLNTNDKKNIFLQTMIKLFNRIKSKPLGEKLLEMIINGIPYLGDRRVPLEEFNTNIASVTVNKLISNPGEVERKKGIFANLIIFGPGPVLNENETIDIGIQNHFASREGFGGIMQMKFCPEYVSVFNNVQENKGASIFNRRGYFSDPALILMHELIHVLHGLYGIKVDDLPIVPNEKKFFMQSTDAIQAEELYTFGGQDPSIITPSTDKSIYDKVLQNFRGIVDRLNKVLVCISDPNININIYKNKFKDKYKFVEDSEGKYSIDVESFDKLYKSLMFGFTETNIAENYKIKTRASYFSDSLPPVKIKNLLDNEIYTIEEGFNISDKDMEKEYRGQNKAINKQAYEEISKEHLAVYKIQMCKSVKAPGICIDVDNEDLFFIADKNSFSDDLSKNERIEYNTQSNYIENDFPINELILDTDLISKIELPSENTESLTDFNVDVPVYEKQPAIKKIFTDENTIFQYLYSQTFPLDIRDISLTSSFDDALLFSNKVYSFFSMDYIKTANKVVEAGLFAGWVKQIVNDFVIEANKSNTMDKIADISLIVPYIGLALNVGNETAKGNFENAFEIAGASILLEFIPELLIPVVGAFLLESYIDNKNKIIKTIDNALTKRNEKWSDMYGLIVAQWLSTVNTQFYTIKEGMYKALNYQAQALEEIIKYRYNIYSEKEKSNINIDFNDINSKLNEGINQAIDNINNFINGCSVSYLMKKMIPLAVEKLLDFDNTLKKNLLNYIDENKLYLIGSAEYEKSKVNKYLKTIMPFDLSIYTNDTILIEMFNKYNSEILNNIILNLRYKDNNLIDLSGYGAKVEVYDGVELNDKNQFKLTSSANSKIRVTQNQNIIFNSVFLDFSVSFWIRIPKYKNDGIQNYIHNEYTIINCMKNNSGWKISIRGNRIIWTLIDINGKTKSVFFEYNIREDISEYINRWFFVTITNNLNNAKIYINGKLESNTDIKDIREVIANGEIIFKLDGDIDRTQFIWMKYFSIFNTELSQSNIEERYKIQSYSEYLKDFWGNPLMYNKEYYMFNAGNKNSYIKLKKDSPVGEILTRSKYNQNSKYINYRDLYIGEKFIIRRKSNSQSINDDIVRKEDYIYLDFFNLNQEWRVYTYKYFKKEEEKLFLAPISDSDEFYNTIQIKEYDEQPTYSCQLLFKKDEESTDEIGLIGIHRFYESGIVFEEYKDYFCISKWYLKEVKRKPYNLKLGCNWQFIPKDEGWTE

Take `C[C@@H](NC(=O)CN)C(=O)N[C@H](Cc1ccccc1)C(=O)N[C@H](Cc1ccccc1)C(=O)N[C@H](Cc1c[nH]c2ccccc12)C(=O)N[C@H](CCCCN)C(=O)N[C@H](CCCCN)C(=O)N[C@H](CCCCN)C(=O)O` [GAFFW] (H-G[dA][dF][dF][dW][dK][dK][dK]-OH; C-terminus assumed): the “binding of BoNT/A in the microplate binding assay” value at BoNT/A is on record as “bound”. At BoNT/B neurotoxin, the “binding of BoNT/B to D-peptide bead (positive bead sequenced)” value (“binding of BoNT/B to D-peptide bead” below) is listed as “identified”. Moreover, at BoNT/B, the “binding of BoNT/B in the microplate binding assay” value is “bound”.
As for `NCCCC[C@@H](NC(=O)[C@@H](CCCCN)NC(=O)[C@@H](CCCCN)NC(=O)[C@@H](Cc1ccc(O)cc1)NC(=O)CNC(=O)[C@@H](Cc1c[nH]c2ccccc12)NC(=O)[C@@H](Cc1ccccc1)NC(=O)CN)C(=O)O` [GFWGY] (H-G[dF][dW]G[dY][dK][dK][dK]-OH), the signs of toxicity result in data set [1] (ip) and in data set [1] (iv) was “no apparent toxicity” throughout.
As for `NCCCC[C@@H](NC(=O)[C@@H](CCCCN)NC(=O)[C@@H](CCCCN)NC(=O)[C@@H](Cc1ccc(O)cc1)NC(=O)[C@@H](Cc1ccccc1)NC(=O)[C@@H](Cc1ccccc1)NC(=O)[C@@H](Cc1ccccc1)NC(=O)CN)C(=O)O` [GFFFY] (H-G[dF][dF][dF][dY][dK][dK][dK]-OH; C-terminus assumed), the “Saturation Concentration” value was 2.3 nM at BotB complex, 3 to 4 nM at BoNT/A and 3 to 4 nM at BoNT/B. In addition, the “binding of BotB complex in the microplate binding assay” value on BotB complex is reported as “bound”. Besides, the equilibrium dissociation constant (Kd) at BotB complex (read-out: Estimated Kd) is 0.022 nM; on BoNT/A (read-out: Estimated Kd) it was 1 to 2 nM; at BoNT/B (read-out: Estimated Kd), 1 to 2 nM. Also, on BoNT/A, the “binding of BoNT/A in the microplate binding assay” value is given as “bound”. Further, the “binding of BoNT/B to D-peptide bead” value at BoNT/B neurotoxin was “binding”. On BoNT/B, the “binding of BoNT/B in the microplate binding assay” value is on record as “bound”.
Take `C[C@@H](N)C(=O)N[C@H](Cc1ccccc1)C(=O)N[C@H](Cc1ccc(O)cc1)C(=O)N[C@H](C)C(=O)N[C@H](Cc1ccc(O)cc1)C(=O)N[C@H](CCCCN)C(=O)N[C@H](CCCCN)C(=O)N[C@H](CCCCN)C(=O)O` [AFYAY] (H-[dA][dF][dY][dA][dY][dK][dK][dK]-OH; C-terminus assumed): on RCA60, the “Saturation Concentration” value is 100 nM.
Consider `NCCCC[C@@H](NC(=O)[C@@H](CCCCN)NC(=O)[C@@H](CCCCN)NC(=O)[C@@H](Cc1ccc(O)cc1)NC(=O)[C@@H](Cc1c[nH]c2ccccc12)NC(=O)CNC(=O)[C@@H](Cc1ccccc1)NC(=O)CN)C(=O)O` [GFGWY] (H-G[dF]G[dW][dY][dK][dK][dK]-OH; C-terminus assumed), for which, at BoNT/A, the “binding of BoNT/A in the microplate binding assay” value is given as “bound”. The “binding of BoNT/B to D-peptide bead” value on BoNT/B neurotoxin is “identified”. At BoNT/B, the “binding of BoNT/B in the microplate binding assay” value was “bound”.
Take `NCCCC[C@@H](NC(=O)[C@@H](CCCCN)NC(=O)[C@@H](CCCCN)NC(=O)[C@@H](Cc1ccccc1)NC(=O)[C@@H](Cc1ccccc1)NC(=O)[C@@H](Cc1ccc(O)cc1)NC(=O)[C@@H](Cc1ccccc1)NC(=O)CN)C(=O)O` [GFYFF] (H-G[dF][dY][dF][dF][dK][dK][dK]-OH; C-terminus assumed): the “binding of ConA to D-peptide bead (positive bead sequenced)” value in data set [2] is listed as “binding”. The “binding of BoNT/B to D-peptide bead” value at BoNT/B neurotoxin was “binding”. Besides, the “Saturation Concentration” value at RCA60 was determined as 100 nM.

Source of the values: US20100168037A1 (priority 2002, published 2010).
